Source: publication PMC11822212, “High-throughput screening identifies Aurora kinase B as a critical therapeutic target for Merkel cell carcinoma” (Nature Communications, 2025)
Where two headings read alike, the source gives them in different places.

Tests used:
Experiment in all cases: qHTS cell viability (CellTiter-Glo, 72 h; primary and follow-up small molecule screen)
Assay type in all cases: cell-based, human
UISO cells (VN-MCC) = test system: UISO cells (VN-MCC)
MKL-2 cells (VP-MCC) = test system: MKL-2 cells (VP-MCC)
MKL-1 cells (VP-MCC) = test system: MKL-1 cells (VP-MCC)
WAGA cells (VP-MCC) = test system: WAGA cells (VP-MCC)
MCC26 cells (VN-MCC) = test system: MCC26 cells (VN-MCC)
MCC13 cells (VN-MCC) = test system: MCC13 cells (VN-MCC)
[1] = follow-up screen, UISO, replicate 1
[2] = follow-up screen, UISO, replicate 2
[3] = follow-up screen, UISO, replicate 3
[4] = follow-up screen, MKL-2, replicate 1
[5] = follow-up screen, MKL-2, replicate 2
[6] = follow-up screen, MKL-2, replicate 3
[7] = follow-up screen, MKL-1, replicate 1
[8] = follow-up screen, MKL-1, replicate 2
[9] = follow-up screen, MKL-1, replicate 3
[10] = follow-up screen, WAGA, replicate 1
[11] = follow-up screen, WAGA, replicate 2
[12] = follow-up screen, WAGA, replicate 3
[13] = follow-up screen, MCC26, replicate 1
[14] = follow-up screen, MCC26, replicate 2
[15] = follow-up screen, MCC26, replicate 3
[16] = follow-up screen, MCC13, replicate 1
[17] = follow-up screen, MCC13, replicate 2
[18] = follow-up screen, MCC13, replicate 3

Compound | Area under the dose-response curve (AUC) UISO Replicate 1 (UISO cells (VN-MCC); [1]) | Area under the dose-response curve (AUC) UISO Replicate 2 (UISO cells (VN-MCC); [2]) | Area under the dose-response curve (AUC) UISO Replicate 3 (UISO cells (VN-MCC); [3]) | Area under the dose-response curve (AUC) MKL-2 Replicate 1 (MKL-2 cells (VP-MCC); [4]) | Area under the dose-response curve (AUC) MKL-2 Replicate 2 (MKL-2 cells (VP-MCC); [5]) | Area under the dose-response curve (AUC) MKL-2 Replicate 3 (MKL-2 cells (VP-MCC); [6]) | Area under the dose-response curve (AUC) MKL-1 Replicate 1 (MKL-1 cells (VP-MCC); [7]) | Area under the dose-response curve (AUC) MKL-1 Replicate 2 (MKL-1 cells (VP-MCC); [8]) | Area under the dose-response curve (AUC) MKL-1 Replicate 3 (MKL-1 cells (VP-MCC); [9]) | Area under the dose-response curve (AUC) WAGA Replicate 1 (WAGA cells (VP-MCC); [10]) | Area under the dose-response curve (AUC) WAGA Replicate 2 (WAGA cells (VP-MCC); [11]) | Area under the dose-response curve (AUC) WAGA Replicate 3 (WAGA cells (VP-MCC); [12]) | Area under the dose-response curve (AUC) MCC26 Replicate 1 (MCC26 cells (VN-MCC); [13]) | Area under the dose-response curve (AUC) MCC26 Replicate 2 (MCC26 cells (VN-MCC); [14]) | Area under the dose-response curve (AUC) MCC26 Replicate 3 (MCC26 cells (VN-MCC); [15]) | Area under the dose-response curve (AUC) MCC13 Replicate 1 (MCC13 cells (VN-MCC); [16]) | Area under the dose-response curve (AUC) MCC13 Replicate 2 (MCC13 cells (VN-MCC); [17]) | Area under the dose-response curve (AUC) MCC13 Replicate 3 (MCC13 cells (VN-MCC); [18]) | further results
COc1ccc([C@]2(C#N)CC[C@@H](C(=O)O)CC2)cc1OC1CCCC1 [Cilomilast] | 447.9 | 471.9 | 485.5 | 473.7 | 471.8 | 486.7 | 459.2 | 478.6 | 483.6 | 477.6 | 504.5 | 496.1 | 421.1 | 410.0 | 436.1 | 465.9 | 445.9 | 491.5 | –
Nc1nc(Cl)nc2c1ncn2[C@@H]1O[C@H](CO)[C@@H](O)[C@@H]1F [Clofarabine] | 305.8 | 296.3 | 317.2 | 314.2 | 343.5 | 397.2 | 270.1 | 265.5 | 283.6 | 261.2 | 248.1 | 263.5 | 347.1 | 310.6 | 353.8 | 326.5 | 337.3 | 347.1 | –
C[C@H]1CCC/C=C/[C@@H]2C[C@H](O)C[C@H]2[C@H](O)/C=C/C(=O)O1 [Cyanein] | 206.3 | 227.9 | 213.5 | 238.6 | 217.1 | 214.7 | 208.9 | 220.0 | 232.6 | 224.1 | 259.2 | 236.6 | 231.7 | 265.8 | 194.4 | 216.1 | 230.2 | 238.1 | –
CC(=O)C1=C(O)[C@@H]2[C@H]3c4c[nH]c5cccc(c45)C[C@H]3C(C)(C)N2C1=O [Cyclopiazonic acid] | – | – | – | – | – | – | – | – | – | – | – | – | – | – | – | – | – | – | Area under the dose-response curve (AUC) UISO Replicate 1 (UISO cells (VN-MCC)): 472.8; Area under the dose-response curve (AUC) UISO Replicate 2 (UISO cells (VN-MCC)): 458.0; Area under the dose-response curve (AUC) UISO Replicate 3 (UISO cells (VN-MCC)): 445.8; Area under the dose-response curve (AUC) MKL-2 Replicate 1 (MKL-2 cells (VP-MCC)): 490.7; Area under the dose-response curve (AUC) MKL-2 Replicate 2 (MKL-2 cells (VP-MCC)): 497.0; Area under the dose-response curve (AUC) MKL-2 Replicate 3 (MKL-2 cells (VP-MCC)): 473.0; Area under the dose-response curve (AUC) MKL-1 Replicate 1 (MKL-1 cells (VP-MCC)): 549.5; Area under the dose-response curve (AUC) MKL-1 Replicate 2 (MKL-1 cells (VP-MCC)): 470.8; Area under the dose-response curve (AUC) MKL-1 Replicate 3 (MKL-1 cells (VP-MCC)): 482.5; Area under the dose-response curve (AUC) WAGA Replicate 1 (WAGA cells (VP-MCC)): 561.2; Area under the dose-response curve (AUC) WAGA Replicate 2 (WAGA cells (VP-MCC)): 524.5; Area under the dose-response curve (AUC) WAGA Replicate 3 (WAGA cells (VP-MCC)): 501.8; Area under the dose-response curve (AUC) MCC26 Replicate 1 (MCC26 cells (VN-MCC)): 467.3; Area under the dose-response curve (AUC) MCC26 Replicate 2 (MCC26 cells (VN-MCC)): 434.2; Area under the dose-response curve (AUC) MCC26 Replicate 3 (MCC26 cells (VN-MCC)): 474.3; Area under the dose-response curve (AUC) MCC13 Replicate 1 (MCC13 cells (VN-MCC)): 495.4; Area under the dose-response curve (AUC) MCC13 Replicate 2 (MCC13 cells (VN-MCC)): 488.6; Area under the dose-response curve (AUC) MCC13 Replicate 3 (MCC13 cells (VN-MCC)): 449.6
